Data set [1] has as its system HT-29 colon cancer cell line.
Data set [2] concerns R^I cAMP receptor protein (LS-174T). The experiment in a line: photoaffinity labelling of R^I cAMP receptor protein, LS-174T. The format is cell-based, human. To be noted: 10 microM, 3 days; control 1.0. On the procedure: (§1) M is marker proteins of known molecular weight.
The incubations were carried out at 23° C. for 60 minutes in 96-well immunoplates. The reaction mixtures were then irradiated for 30 seconds at 254 nm, placing a Mineralite UVS-11 hand lamp directly onto the plate. The samples were mixed with 25 microliters of 3× sample buffer (3% SDS, 15% beta-mercaptoethanol, 30 mM Tris, 30% glycerol, 1% bromophenol blue saturated solution), boiled for 3 minutes, and centrifuged at 700×g for five minutes. The samples containing 50-100 micrograms of protein were subjected to 0.05% SDS-12% PAGE. The gels were fixed, dried, and exposed to X-ray films overnight. The protein concentrations were determined by the method of Lowry et al., (J. Biol. Chem. 193: 265-275, 1951) with bovine serum albumin as standard.
The levels of the receptor proteins are expressed relative to the R^I level in the untreated control cells of MDA-MB-231 and LS-174T, which are each set equal to 1.0 O.D.; the scale was expanded to differentiate the lower intensity bands.

Data set [3] deals with murine leukemia L1210. Nature of the data set: life span of L1210-inoculated BDF1 mice. It is filed as in vivo, mouse. The text has this: | Infusions by Harvard pumps.
Data set [4] relates to breast and colon cancer cell lines. Nature of the data set: cell cycle progression of breast and colon cancer cell lines. The format is cell-based, human. Conditions: vs untreated control cells. Here is the method:
(§2) DNA histograms were generated on FACS II by using the DNA intercalating dye propidium iodide as described by Braylan et al. (Cytometry 2: 337-343, 1982). The percentage of cells in each cycle phase was calculated by using a PDP-11/34 computer and software as described by Neckers et al. (Mol. Cell. Biol. 6: 4244-4250, 1986).
A determination was made whether the reduced cell proliferation observed in the cancer cell lines after treatment with the compounds of the present invention is due to a specific block in one phase of the cell cycle.

Data set [5] relates to breast and colon cancer cells. Nature of the data set: effect on cell morphology. It is filed as cell-based, human. The text has this:
The photographs were taken on Day 4, ×160.
Furthermore, the synergistic growth inhibitory effect of C-6 and C-8 analogue combinations was also reflected in the change in the cell morphology.

The test system of data set [6] is MDA-MB-231. Nature of the data set: growth of MDA-MB-231 cells. The format is cell-based. To be noted: Homo sapiens, MDA-MB-231, 72 h; 10 microM, 3 days. On the procedure: as §1
All breast cancer cell lines were grown in IMEM supplemented with 10% fetal bovine serum, 20 mM HEPES, penicillin-streptomycin, and extra glutamine. Colon carcinoma cell lines were grown in EMEM supplemented with 10% FBS, EMEM, NEAA, HEPES 20 mM, extra glutamine, and penicillin-streptomycin. The cells were grown at 37° C. in humidified incubators in an atmosphere of 5% CO2.
For cell growth experiments, 2-3×10^5 cells/60 mm dish were seeded, and 24 hours later (Day 0), the medium was removed, and fresh medium and the additives were added then and every 48 hours thereafter The compounds of the present invention were added using 100× concentrated stock solutions. At desired times, cell counts in duplicate were performed on a Coulter counter after harvesting the cells with gentle trypsinization.

Data set [7] deals with R^I cAMP receptor protein (Molt-4). Nature of the data set: R^I cAMP receptor protein in Molt-4 leukemic cells. Conditions: 5 micromol/L, three days. The format is cell-based, human. The text has this: M marker proteins of known molecular weight. […] The resulting supernatants were used as cell lysates. […] ND=nondetectable.
Data set [8] deals with LS-174T. Nature of the data set: growth of LS-174T human colon carcinoma in nude mice. It is filed as in vivo. To be noted: nude mouse, pellet with 10 mg cAMP analogue, day 7. On the procedure:
LS174T, human colon cancer line was s.c. grown in nude mice and a solid
tumor, transplantable, was obtained.
(§3) 8Cl-cAMP and DBcAMP were given as a 20mg pellet consisting of 10 mg of […]

In data set [9] the test system is NMU-2. Nature of the data set: growth of metastatic NMU-2 rat mammary carcinoma. The format is in vivo. To be noted: pellet with 10 mg cAMP analogue, day 7. On the procedure: NMU2, a variant of primary hormoneresponsive NMU tumor,
hormoneindependent, transplantable, and metastatic.
as §3

The subject of data set [10] is DMBA-induced mammary carcinomas. The experiment in a line: in vivo growth of DMBA-induced mammary carcinomas in rats. The arrangement: species or system rat. On the procedure: […] |DMBA-induced mammary carcinomas in rats […] | 10 mg. cholesterol), was implanted on day 0 and day 14.
Data set [11] concerns transplantable DMBA-1 and MNA-2 rat mammary carcinomas. Nature of the data set: short-term assays with transplantable rat mammary carcinomas. Conditions: 10-mg pellet, within one week. It is filed as in vivo.
The test system of data set [12] is LS-174T colon cancer cells. The experiment in a line: cell cycle analysis, LS-174T. The format is cell-based, human. Conditions: 8-Cl 10 μM, 3 days, two separate experiments. Here is the method:
as §2
Breast (MCF-7, MDA-MB-231) and colon (LS-174T) cancer cells in
log phase (untreated control) and 3 days after treatment with
(5 μM) were analyzed for DNA content by flow cytometric analysis

The subject of data set [13] is R^II. Conditions: cited from earlier work.

The structures appear in SMILES notation.

On to `Nc1ncnc2c1nc(Cl)n2[C@@H]1O[C@@H]2COP(=O)(O)O[C@H]2[C@H]1O` [8-Cl-cAMP], for which, in [1], the “8-Cl-adenosine in cell extracts” value was “no 8-Cl-adenosine was present”, the “8-Cl-adenosine in cell extracts or medium” value is recorded as 8-Cl-adenosine was not detected, the 8-Cl-adenosine in medium result was “no 8-Cl-adenosine was present” and the “cell penetration of intact compound” value is on record as “penetrated the cell”. Moreover, in data set [2], the “R^I relative level” value is 0.20 ± 0.02. For the same compound, the antitumor effect entry in [3] (104 mg/kg bolus injection, seven consecutive days) is “no antitumor effect”. Moreover, the “tolerability in L1210-bearing mice” value in data set [3] (104 mg/kg bolus, seven consecutive days) is listed as “tolerated”. In [3] (104 mg/kg/day constant infusion, five days), the “increase in mean life span” value is listed as 37%. In data set [4], the “fractions of cells in G1, S and G2/M phases, in words” value is given as “not appreciably different”. In data set [5] (1 microM alone, four days), the morphological change result is “did not induce a change in the cell morphology”. Further, in [5] (50 microM, four to five days), the morphological change entry is “characteristic morphological change”. This compound yielded an activity at 10 µM in data set [6] of 45%. Moreover, the “R^I receptor protein, in words” value in [7] is recorded as “markedly decreased”. In addition, the “Change in mean tumor volume” value in [8] was 0.58 cm^3. For the same compound, the “Change in mean tumor volume (%)” value in data set [8] (none = 100) is 60%. In data set [9], the “Change in mean tumor volume” value is 1.10 cm^3. Moreover, the “tumor growth, in words” value in data set [10] (10 mg pellet implanted twice every two weeks) was “completely stopped tumor growth”. For the same compound, the “tumor regression within 30 days” value in data set [10] (within 30 days) is about 100%. Moreover, the growth inhibition in data set [11] was 40-50%. Further, in data set [12], the “% Cell population in G1” value is reported as 63,53%, the “% Cell population in G2 M” value is 22,25% and the “% Cell population in S” value was 15,22%. The activity at 10 µM in [12] (Homo sapiens, LS174T, 72 h, read-out: % Growth) is 30.3%. The “site selectivity of binding, R^II” value in data set [13] is on record as “selectively binds to site 1”.

Values taken from patent US5902794A (priority 1997, dated 1999).
